Columns and labels:
C. albicans = type: in vivo; settings: immunocompromised mice; for Survival rate: 7 days after fatal dose of C. albicans by tail vein at week 8; for Survival number after 7 days: fatal dose of C. albicans by tail vein at week 8, 20 mice per group, fluconazole 50 mg/kg d intragastric for 7 days
[1] = test system: Th17 cells (cytokine IL-17F); settings: in words; after immunization vs. blank control group
Experimental: The effectiveness of the vaccine was studied by using an immunocompromised (neutropenia) mouse model. […] To investigate the T cell-mediated immune response, mouse blood was taken and detected for a change in cytokine IL-17F level in Th17 cells to evaluate the immunogenicity of chitosan oligosaccharide-carrier protein vaccine.
6-8-week-old Balb/c female mice were selected, and adaptively fed for 3-7 d. 20 g/L cyclophosphamide was prepared with normal saline, and the cyclophosphamide was injected intraperitoneally by body weight of 200 mg/kg. The number of neutrophils in the mouse blood was measured by a SYSMEX XT-2000i automatic blood analyzer after 3 days. If the number of the neutrophils was <500/mm^3, the experiment could be continued. After that, the cyclophosphamide was injected every 10 days at a dose of 150 mg/kg, which was maintained throughout the test period.
A normal saline blank control group, a KLH group, a chitosan oligosaccharide group, a chitosan oligosaccharide-KLH group in Example 6, a fluconazole group (as a positive control of a challenge test) were set up, with 10 mice in each group. At weeks 0, 2, 4 and 6 at the start of the experiment, the mice were injected subcutaneously from multiple points on the neck and back, with an injection amount of 2.5 mg/kg. The normal saline blank group was injected with normal saline, and the fluconazole group was not injected. […]

| Compound | Survival rate (C. albicans) | Survival number after 7 days (C. albicans) | Change of proportion of intracellular IL-17F compared with blank control group [1] |
| --- | --- | --- | --- |
| keyhole limpet hemocyanin [KLH] | 30% | 6 | increased to a certain extent |
| OC(Cn1cncn1)(Cn1cncn1)c1ccc(F)cc1F [Fluconazole, fluconazole, reference compound] | 50% | 10 |  |
